Patent publication US12030893B2, “Near-infrared nerve-sparing benzo[c]phenoxazine fluorophores” (OREGON HEALTH & SCIENCE UNIVERSITY, priority 2018, dated 2024)

How the values were obtained:
[1] = system: murine brachial plexus and sciatic nerves; experiment: In vivo nerve-specificity screening via direct/topical administration; set-up: species or system mice; details: 500 μM in co-solvent formulation, 100 μL incubated 5 minutes on exposed nerve, imaged 30 minutes after staining; selected for further systemic screening
Description: Each compound was screened for its tissue-specificity using a previously published direct/topical administration strategy in murine brachial plexus and sciatic nerves.^1 Each compound from the benzo[c]phenoxazine library was formulated in the previously utilized co-solvent formulation (10% DMSO, 5% Kolliphor, 65% serum and 20% phosphate buffered saline) at 500 μM. 100 μL of the formulated Oxazine were incubated on the exposed brachial plexus or sciatic nerve for 5 minutes. The fluorophore containing solution was removed and the area was irrigated with saline 18 times to remove any unbound fluorophore. Co-registered fluorescence and color images were collected of each stained area 30 minutes after benzo[c]phenoxazine direct/topical administration using a custom built macroscopic imaging system with 710/75 nm excitation and 810 nm longpass emission filters. Custom written MatLab code was used to analyze the tissue specific fluorescence where regions of interest were selected on the nerve, muscle, cut muscle and adipose tissue using the white light images. These regions of interest were then analyzed on the co-registered matched fluorescence images permitting assessment of the nerve-to-muscle, nerve-to-cut muscle, and nerve-to-adipose ratios in blinded manner.
(§1) In vivo nerve-specificity screening of the benzo[c]phenoxazine derivative library. Each compound was screened for its tissue-specificity using a direct administration strategy (Barth & Gibbs, Theranostics 7, 573-593 (2017)) where nerve contrast was examined in murine brachial plexus and sciatic nerves. The benzo[c]phenoxazine derivatives were solubilized for in vivo use in the previously described co-solvent formulation (Gibbs-Strauss et al., Molecular imaging 10, 91-101 (2011)). The previously optimized staining procedure was utilized (Gibbs et al., PloS one 8, e73493 (2013)), which is described briefly as follows. The brachial plexus and sciatic nerves were surgically exposed by removal of overlaying adipose and muscle tissues. The benzo[c]phenoxazine compound was formulated at 500 μM in the co-solvent formulation and 100 μL was incubated on the exposed brachial plexus or sciatic nerve for 5 minutes. The fluorophore containing solution was removed and the area was irrigated with saline nine times, followed by a five-minute incubation with blank formulation and then irrigation with saline nine more times to remove any unbound fluorophore. Images were acquired 30 minutes following completion of staining. Unstained nerve sites were used for all control images to quantify autofluorescence. Each benzo[c]phenoxazine derivative was screened in n=3 mice or 6 nerve sites/fluorophore. The quantified tissue fluorescence intensities following direct administration of the fluorophores were used to calculate nerve-to-muscle, nerve-to-cut muscle, and nerve-to-adipose ratios as metrics of nerve contrast. […] Uninjected animals were used for all control images to quantify autofluorescence. Similarly to quantification protocol for the direct administration, the quantified tissue fluorescence intensities following systemic administration of the fluorophores were used to calculate nerve-to-muscle and nerve-to-adipose ratios as metrics of nerve contrast. […]
Intraoperative fluorescence imaging systems. A custom-built small animal imaging system capable of real-time color and fluorescence imaging was used to acquire in vivo rodent images (Hackman et al., Molecular pharmaceutics (2015)). […]

[2] = system: murine brachial plexus and sciatic nerves; experiment: In vivo nerve-specificity screening via systemic administration; set-up: species or system mice; details: 500 nmol intravenously in co-solvent formulation; sacrificed at 0.5 h, 1 h, 2 h, 4 h
Description: Each compound was screened for its tissue-specificity using a previously published systemic administration strategy in murine brachial plexus and sciatic nerves.^1 Each compound from the benzo[c]phenoxazine library was formulated in the previously utilized co-solvent formulation (10% DMSO, 5% Kolliphor, 65% serum and 20% phosphate buffered saline) at 2.5 mM. 200 μL of the formulated fluorophore was administered intravenously before exposing the brachial plexus and sciatic nerves. Co-registered fluorescence and color images were collected of each nerve site using a custom built macroscopic imaging system with 710/75 nm excitation and 810 nm longpass emission filters. Custom written MatLab code was used to analyze the tissue specific fluorescence where regions of interest were selected on the nerve, muscle and adipose tissue using the white light images. These regions of interest were then analyzed on the co-registered matched fluorescence images permitting assessment of the nerve to muscle and nerve to adipose ratios in blinded manner.
as §1, with “The brachial plexus and sciatic nerves were surgically exposed by removal of overlaying adipose and muscle tissues. The benzo[c]phenoxazine compound was formulated at 500 μM in the co-solvent formulation and 100 μL was incubated on the exposed brachial plexus or sciatic nerve for 5 minutes. The fluorophore containing solution was removed and the area was irrigated with saline nine times, followed by a five-minute incubation with blank formulation and then irrigation with saline nine more times to remove any unbound fluorophore. Images were acquired 30 minutes following completion of staining.” left out, “Each benzo[c]phenoxazine derivative was screened in n=3 mice or 6 nerve sites/fluorophore.” left out
Intraoperative fluorescence imaging systems. A custom-built small animal imaging system capable of real-time color and fluorescence imaging was used to acquire in vivo rodent images (Hackman et al., Molecular pharmaceutics (2015)). Briefly, the imaging system consisted of a QImaging EXi Blue monochrome camera (Surrey, British Columbia, CA) for fluorescence detection with a removable Bayer filter for collection of co-registered color and fluorescence images. […]

[3] = longest among reported nerve-specific fluorophores; cited from earlier work

## CCN(CC)c1ccc2c3c(ccc2c1)N=c1cc2c(cc1O3)=NCCC2 [LGW07-14, 3-(diethylamino)-10,11-dihydro-9H-benzo[h]pyrido[3,2-b]phenoxazin-12-ium]
[1]
  outcome of nerve-specificity screening (nerve-to-muscle, nerve-to-cut muscle, nerve-to-adipose ratios) following direct administration: lead candidates
[2]
  outcome of nerve-specificity screening (nerve-to-muscle, nerve-to-adipose ratios) following systemic administration: selected as lead benzo[c]phenoxazine nerve-specific fluorophores

## CCN(CC)c1ccc2c(ccc3nc4ccc(=[N+](C)C)cc-4oc32)c1 [LGW07-92, N-(3-(diethylamino)-10H-benzo[c]phenoxazin-10-ylidene)-N-methylmethanaminium]
[1]
  outcome of nerve-specificity screening (nerve-to-muscle, nerve-to-cut muscle, nerve-to-adipose ratios) following direct administration: lead candidates

## CC/N=c1\ccc2nc3ccc4cc(N(CC)CC)ccc4c3oc-2c1C [LGW08-35, (E)-N-(3-(diethylamino)-11-methyl-10H-benzo[c]phenoxazin-10-ylidene)ethanaminium]
[1]
  outcome of nerve-specificity screening (nerve-to-muscle, nerve-to-cut muscle, nerve-to-adipose ratios) following direct administration: lead candidates
[2]
  outcome of nerve-specificity screening (nerve-to-muscle, nerve-to-adipose ratios) following systemic administration: selected as lead benzo[c]phenoxazine nerve-specific fluorophores

## CC/N=c1/cc2oc3c(ccc4cc(N(CC)CC)ccc43)nc-2c(C)c1 [LGW08-46, (E)-N-(3-(diethylamino)-8-methyl-10H-benzo[c]phenoxazin-10-ylidene)ethanaminium]
[1]
  outcome of nerve-specificity screening (nerve-to-muscle, nerve-to-cut muscle, nerve-to-adipose ratios) following direct administration: lead candidates
[2]
  outcome of nerve-specificity screening (nerve-to-muscle, nerve-to-adipose ratios) following systemic administration: selected as lead benzo[c]phenoxazine nerve-specific fluorophores

## CC/N=c1/cc2oc3c(ccc4cc(N(CC)CC)ccc43)nc-2cc1C [LGW 05-25, (Z)—N-(3-(diethylamino)-9-methyl-10H-benzo[c]phenoxazin-10-ylidene)ethanaminium]
[1]
  outcome of nerve-specificity screening (nerve-to-muscle, nerve-to-cut muscle, nerve-to-adipose ratios) following direct administration: lead candidates
[2]
  outcome of nerve-specificity screening (nerve-to-muscle, nerve-to-adipose ratios) following systemic administration: selected as lead benzo[c]phenoxazine nerve-specific fluorophores

## CC/N=c1/cc2oc3cc(NCC)c(C)cc3nc-2cc1C [Oxazine 4]
[3]
  emission wavelength maximum: 635 nm
